Measured values taken from patent US20250230147A1, “LACTAMS AS CBL-B INHIBITORS” (Genentech, Inc., priority 2021, published 2025).
Where a name gives a salt, the structure may show the parent alone.

Key:
c-Cbl = c-Cbl (Homo sapiens (Human), UniProt P22681); test: C-Cbl LCK Ub TR-FRET assay (c-cbl Lck HTRF); assay type: biochemical; settings: for (fold-selectivity): C-cbl Lck HTRF IC50 relative to Cbl-b Lck HTRF IC50
How it was run: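 After the ubiquitination reaction, detection mixture was added and plates incubated 20 min at room temperature before reading. IC50 values were calculated with wells lacking LCK as the low control and DMSO as the high control.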

Cbl-b = Cbl-b (Homo sapiens (Human), UniProt Q13191); test: Cbl-b LCK Ub TR-FRET assay (Cbl-b Lck HTRF); assay type: biochemical
Chain of Cbl-b (Q13191 40-426): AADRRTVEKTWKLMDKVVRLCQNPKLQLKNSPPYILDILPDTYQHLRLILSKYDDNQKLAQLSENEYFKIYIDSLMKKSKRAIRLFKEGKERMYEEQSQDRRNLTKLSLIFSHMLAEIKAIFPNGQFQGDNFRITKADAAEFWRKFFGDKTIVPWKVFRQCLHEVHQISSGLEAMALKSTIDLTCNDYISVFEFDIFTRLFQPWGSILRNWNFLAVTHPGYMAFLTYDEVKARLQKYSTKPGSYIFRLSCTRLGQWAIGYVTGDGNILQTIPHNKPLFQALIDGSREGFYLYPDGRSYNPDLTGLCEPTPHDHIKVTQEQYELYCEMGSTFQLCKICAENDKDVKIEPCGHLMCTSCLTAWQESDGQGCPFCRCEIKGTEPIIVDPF
How it was run: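 TR-FRET (340 nm excitation, 615/665 nm emission) read after adding HA-ubiquitin–UBE2D2 thioester, anti-HA-D2 and streptavidin-Eu. Beforehand, compounds incubated 60 min with biotinylated Cbl-b, then 90 min with His-LCK and ATP (1 mM in 2× mix); IC50 from 10 concentrations, DMSO high and no-LCK low controls.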

Chain of c-Cbl (P22681 47-435): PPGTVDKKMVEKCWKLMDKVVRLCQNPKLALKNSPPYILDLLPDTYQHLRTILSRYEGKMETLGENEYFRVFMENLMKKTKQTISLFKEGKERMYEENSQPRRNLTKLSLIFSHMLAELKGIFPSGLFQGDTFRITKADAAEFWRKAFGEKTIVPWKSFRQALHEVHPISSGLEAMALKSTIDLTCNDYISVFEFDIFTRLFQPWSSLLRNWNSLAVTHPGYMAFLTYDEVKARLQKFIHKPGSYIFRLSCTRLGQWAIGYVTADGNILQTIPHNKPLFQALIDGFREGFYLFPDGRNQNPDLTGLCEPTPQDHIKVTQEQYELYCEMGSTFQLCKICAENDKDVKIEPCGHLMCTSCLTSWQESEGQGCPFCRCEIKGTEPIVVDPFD

| SMILES | IC50 (c-Cbl) [nM] | (fold-selectivity) (c-Cbl) | IC50 (Cbl-b) [nM] |
| --- | --- | --- | --- |
| Cn1cnnc1CC1(c2cc(-c3ccccc3)nc(N3Cc4c(cc(CNC5(C)CCC5)cc4C(F)(F)F)C3=O)c2)CCC1 [Compound 324, 2-(4-(1-((4-methyl-4H-1,2,4-triazol-3-yl)methyl)cyclobutyl)-6-phenylpyridin-2-yl)-6-(((1-methylcyclobutyl)amino)methyl)-4-(trifluoromethyl)isoindolin-1-one] | 7.6 | (0.66x) | 12 |
| CC[C@@H]1CN(Cc2cc3c(c(C(F)(F)F)c2)CN(c2cccc(C4(Cc5nncn5C)CC(F)(F)C4)c2)C3=O)CCN1 [Compound 426, (R)-2-(3-(3,3-difluoro-1-((4-methyl-4H-1,2,4-triazol-3-yl)methyl)cyclobutyl)phenyl)-6-((3-ethylpiperazin-1-yl)methyl)-4-(trifluoromethyl)isoindolin-1-one] | 26 | (0.73x) | 35 |
| Cn1cnnc1[C@H](F)C1(c2cccc(N3Cc4c(cc(CN5CCC[C@@H](CO)C5)cc4C(F)(F)F)C3=O)c2)COC1 [Compound 151, 2-(3-(3-((R)-fluoro(4-methyl-4H-1,2,4-triazol-3-yl)methyl)oxetan-3-yl)phenyl)-6-(((R)-3-(hydroxymethyl)piperidin-1-yl)methyl)-4-(trifluoromethyl)isoindolin-1-one] | 85 | 1.4x | 61 |
| CCNc1cc(N2Cc3c(cc(CNC4(C)CCC4)cc3C(F)(F)F)C2=O)cc(C2(Cc3nncn3C)COC2)c1 [Compound 474, 2-(3-(ethylamino)-5-(3-((4-methyl-4H-1,2,4-triazol-3-yl)methyl)oxetan-3-yl)phenyl)-6-(((1-methylcyclobutyl)amino)methyl)-4-(trifluoromethyl)isoindolin-1-one] | 8.6 | (0.79x) | 11 |
| Cn1cnnc1[C@H](F)C1(c2cccc(N3Cc4c(cc([C@H](N)C5CCC5)cc4C(F)(F)F)C3=O)c2)COC1 [Compound 392, 6-((R)-amino(cyclobutyl)methyl)-2-(3-(3-((R)-fluoro(4-methyl-4H-1,2,4-triazol-3-yl)methyl)oxetan-3-yl)phenyl)-4-(trifluoromethyl)isoindolin-1-one] | 15 | (1.1x) | 13 |
| CCCNCc1cc2c(c(C(F)(F)F)c1)CN(c1cc(NC(C)C)cc(C3(Cc4nncn4C)CCC3)c1)C2=O [Compound 456, 2-(3-(isopropylamino)-5-(1-((4-methyl-4H-1,2,4-triazol-3-yl)methyl)cyclobutyl)phenyl)-6-((propylamino)methyl)-4-(trifluoromethyl)isoindolin-1-one] | 7.6 | (0.56x) | 13 |
| CCNc1cc(N2Cc3c(cc(CNCC4CC4)cc3C(F)(F)F)C2=O)cc(C2(Cc3nncn3C)CCC2)c1 [Compound 457, 6-(((cyclopropylmethyl)amino)methyl)-2-(3-(ethylamino)-5-(1-((4-methyl-4H-1,2,4-triazol-3-yl)methyl)cyclobutyl)phenyl)-4-(trifluoromethyl)isoindolin-1-one] | 12 | (0.71x) | 17 |
| CC(C)[C@H]1CN(CCF)CCN1Cc1cc2c(c(C(F)(F)F)c1)CN(c1cccc(C3([C@@H](F)c4nncn4C)COC3)c1)C2=O [Compound 197, 2-(3-(3-((R)-fluoro(4-methyl-4H-1,2,4-triazol-3-yl)methyl)oxetan-3-yl)phenyl)-6-(((S)-4-(2-fluoroethyl)-2-isopropylpiperazin-1-yl)methyl)-4-(trifluoromethyl)isoindolin-1-one] | 13 | 1.6x | 8 |
| C[C@@H](NC1(C)CCC1)c1cc2c(c(C(F)(F)F)c1)CN(c1cccc(C3([C@@H](F)c4nncn4C)COC3)c1)C2=O [Compound 247, 2-(3-(3-((R)-fluoro(4-methyl-4H-1,2,4-triazol-3-yl)methyl)oxetan-3-yl)phenyl)-6-((R)-1-((1-methylcyclobutyl)amino)ethyl)-4-(trifluoromethyl)isoindolin-1-one] | 11 | (1.4x) | 7.6 |
| CC(C)CNCc1cc2c(c(C(F)(F)F)c1)CN(c1cccc(C3([C@@H](F)c4nncn4C)CC(F)(F)C3)c1)C2=O [Compound 451, (R)-2-(3-(3,3-difluoro-1-(fluoro(4-methyl-4H-1,2,4-triazol-3-yl)methyl)cyclobutyl)phenyl)-6-((isobutylamino)methyl)-4-(trifluoromethyl)isoindolin-1-one] | 10 | (0.71x) | 15 |
| CC[C@H](C)NCc1cc2c(c(C(F)(F)F)c1)CN(c1cccc(C3(Cc4nncn4C)CC(F)(F)C3)c1)C2=O [Compound 371, (S)-6-((sec-butylamino)methyl)-2-(3-(3,3-difluoro-1-((4-methyl-4H-1,2,4-triazol-3-yl)methyl)cyclobutyl)phenyl)-4-(trifluoromethyl)isoindolin-1-one] | 14 | (0.94x) | 15 |
| CCCNCc1cc2c(c(C(F)(F)F)c1)CN(c1cccc(C3([C@@H](F)c4nncn4C)COC3)c1)C2=O [Compound 228, (R)-2-(3-(3-(fluoro(4-methyl-4H-1,2,4-triazol-3-yl)methyl)oxetan-3-yl)phenyl)-6-((propylamino)methyl)-4-(trifluoromethyl)isoindolin-1-one formate] | 96 |  | 12 |
| Cc1cnnn1CC1(c2cccc(N3Cc4c(cc(CN5CCN(C)C[C@@H]5C(C)C)cc4C(F)(F)F)C3=O)c2)COC1 [Compound 222, (S)-6-((2-Isopropyl-4-methylpiperazin-1-yl)methyl)-2-(3-(3-((5-methyl-1H-1,2,3-triazol-1-yl)methyl)oxetan-3-yl)phenyl)-4-(trifluoromethyl)isoindolin-1-one] | 26 | 1.2x | 22 |
| Cn1cnnc1CC(F)c1cccc(N2Cc3c(cccc3C(F)(F)F)C2=O)c1 (racemic) [Compound 14, 2-[3-[1-fluoro-2-(4-methyl-4H-1,2,4-triazol-3-yl)ethyl]phenyl]-4-(trifluoromethyl)isoindolin-1-one] | 20000 | 2.0x | 10000 |
| Cc1ccnn1CC1(c2cccc(N3Cc4c(cc(CN5CCN(C)C[C@@H]5C(C)C)cc4C(F)(F)F)C3=O)c2)COC1 [Compound 263, (S)-6-((2-isopropyl-4-methylpiperazin-1-yl)methyl)-2-(3-(3-((5-methyl-1H-pyrazol-1-yl)methyl)oxetan-3-yl)phenyl)-4-(trifluoromethyl)isoindolin-1-one] | 59 | (1.3x) | 45 |
| Cn1cnnc1CC1(c2cccc(N3Cc4c(cc(CNC(C)(C)C)cc4C(F)(F)F)C3=O)c2)CC(F)(F)C1 [Compound 283, 6-((tert-butylamino)methyl)-2-(3-(3,3-difluoro-1-((4-methyl-4H-1,2,4-triazol-3-yl)methyl)cyclobutyl)phenyl)-4-(trifluoromethyl)isoindolin-1-one] | 57 | (1.1x) | 53 |
| CO[C@H]1CCN(Cc2cc3c(c(C(F)(F)F)c2)CN(c2cccc(C4([C@@H](F)c5nncn5C)COC4)c2)C3=O)C1 [Compound 131, 2-(3-(3-((R)-fluoro(4-methyl-4H-1,2,4-triazol-3-yl)methyl)oxetan-3-yl)phenyl)-6-(((S)-3-methoxypyrrolidin-1-yl)methyl)-4-(trifluoromethyl)isoindolin-1-one] | 170 | 2.9x | 59 |
| Cn1cnnc1[C@@H](F)C1(c2cccc(N3Cc4c(cc(CN5CC6(CCO6)C5)cc4C(F)(F)F)C3=O)c2)COC1 [Compound 140, (S)-6-(1-oxa-6-azaspiro[3.3]heptan-6-ylmethyl)-2-(3-(3-(fluoro(4-methyl-4H-1,2,4-triazol-3-yl)methyl)oxetan-3-yl)phenyl)-4-(trifluoromethyl)isoindolin-1-one] | 970 | 2.8x | 380 |
| CCSc1cc(C2(Cc3nncn3C)CCC2)cc(N2Cc3c(cc(CNC4(C)CCC4)cc3C(F)(F)F)C2=O)n1 [Compound 286, 2-(6-(ethylthio)-4-(1-((4-methyl-4H-1,2,4-triazol-3-yl)methyl)cyclobutyl)pyridin-2-yl)-6-(((1-methylcyclobutyl)amino)methyl)-4-(trifluoromethyl)isoindolin-1-one] | 4.9 | (0.73x) | 6.8 |
| CC(C)[C@H]1CN(CCF)CCN1Cc1cc2c(c(C(F)(F)F)c1)CN(c1cccc(C3([C@H](F)c4nncn4C)COC3)c1)C2=O [Compound 198, 2-(3-(3-((S)-fluoro(4-methyl-4H-1,2,4-triazol-3-yl)methyl)oxetan-3-yl)phenyl)-6-(((S)-4-(2-fluoroethyl)-2-isopropylpiperazin-1-yl)methyl)-4-(trifluoromethyl)isoindolin-1-one] | 21 | 1.5x | 14 |
| C=CCNc1cc(C2(Cc3nncn3C)CCC2)cc(N2Cc3c(cc(CN4CCN(C)C[C@@H]4C(C)C)cc3C(F)(F)F)C2=O)n1 [Compound 275, (S)-2-(6-(allylamino)-4-(1-((4-methyl-4H-1,2,4-triazol-3-yl)methyl)cyclobutyl)pyridin-2-yl)-6-((2-isopropyl-4-methylpiperazin-1-yl)methyl)-4-(trifluoromethyl)isoindolin-1-one] | 7 | (1.0x) | 7 |
